# Data from US8741944B2, “Anti-infective agents against intracellular pathogens” (priority 2007, dated 2014).
# “Also recorded” adds a separate entry of the source. Like-named read-outs stand apart in the source and are kept apart here.
# What was measured:
# [1] = test system: S. typhimurium; assay: Intracellular survival (gentamicin protection) assay, S. typhimurium in RAW 264.7 murine macrophages; type: cell-based, Salmonella typhimurium
# Procedure: The discovery that OSU-03012 induces autophagy in human cancer cells, coupled with the importance of autophagy as a defense against intracellular pathogens, prompted us to test the effect of this agent on the intracellular survival of S. typhimurium in infected RAW 264.7 murine macrophages. Both time- and dose-dependent effects of OSU-03012 were assessed in intracellular survival (i.e. gentamicin protection) assays. […] To determine if OSU-03012 had direct bactericidal activity, the effect of OSU-03012 on extracellular bacterial growth was examined in liquid medium (FIG. 3C) and on agar by the disc-diffusion method (not shown).
# [2] = target: recombinant PDK-1 (Homo sapiens (Human), UniProt O15530); assay: PDK-1 kinase activity (PDK-1 kinase assay kit, cell-free); type: biochemical; conditions: for IC50: inhibiting recombinant PDK-1 kinase activity
# Procedure: PDK-1 kinase activity This in vitro assay was performed using a PDK-1 kinase assay kit (Upstate, Lake Placid, N.Y.) according to the vendor's instructions. This cell-free assay is based on the ability of recombinant PDK-1, in the presence of DMSO vehicle or the test agent, to activate its downstream kinase serum- and glucocorticoid-regulated kinase (SGK.) which, in turn, phosphorylates the Akt/SGK-specific peptide substrate RPRAATF with [γ-^32]-ATP. […] The reported values represent the means of two independent determinations.
# [3] = test system: PC-3 cells; assay: Cell viability analysis, MTT assay in PC-3 cells; type: cell-based, human
# Procedure: Cell Culture PC-3 (p53−/−) human androgen-non-responsive prostate cancer cells were purchased from the American […] (Manassas, Va.). Cells were cultured in RPMI 1640 medium (Gibco, Grand Island, N.Y.) supplemented with 10% fetal bovine serum (FBS; Gibco) at 37° C. in a humidified incubator containing 5% CO2.
# Controls received DMSO vehicle at a concentration equal to that in drug-treated cells. The medium was removed, replaced by 200 μl of 0.5 mg/ml of MTT in 10% FBS-containing RPMI-1640 medium, and cells were incubated in the CO2 incubator at 37° C. for 2 h. Supernatants were removed from the wells, and the reduced MTT dye was solubilized in 200 μL/well DMSO. Absorbance at 570 nm was determined on a plate reader.
# [4] = in vivo
# [5] = test system: S. typhimurium; assay: Extracellular bacterial growth in liquid medium and on agar (disc-diffusion); type: cell-based, Salmonella typhimurium; conditions: concentrations of up to 5 μM
# [6] = test system: autophagy; assay: Autophagy induction; type: cell-based, human
# Text: OSU-03012 eliminates intracellular S. typhimurium by inducing autophagy in infected macrophages. […] Additional evidence for this mechanism of action comes from the human breast cancer cell lines, MCF-7 and MDA-MB-231, which differ in their expression levels of beclin-1, a tumor suppressor that is critical for the execution of autophagy (FIG. 5A). Accordingly, the ability of OSU-03012 to induce autophagy in these cell lines, as determined by the intensity of immunostaining for endogenous LC3, a marker of mammalian autophagosomes (FIG. 5C), correlates with their respective beclin-1 expression levels. Moreover, intracellular bacterial survival in OSU-03012-treated S. typhimurium-infected breast cancer cells also reflects their respective beclin-1 status (FIG. 5B). […] Moreover, OSU-03012 induces autophagy and bacterial clearance far more potently than rapamycin and at clinically attainable concentrations.
# [7] = test system: F. novicida; type: cell-based; conditions: RAW 264.7 cells, 1 μM for 24 h
# [8] = test system: Akt; assay: Direct inhibition of immunoprecipitated Akt kinase activity; type: biochemical, human
# [9] = test system: Akt; assay: Immunoprecipitated Akt kinase assay after treatment of PC-3 cells (intracellular Akt activation); type: cell-based, human; conditions: PC-3 cells treated for 2 h; read-out: IC50 for inhibiting intracellular Akt activation
# Procedure: Immunoprecipitated Akt kinase assay Akt immunoprecipitation was carried out according to a modified, published procedure. PC-3 cells were treated with DMSO vehicle or the test agents at the indicated concentrations for 2 h and then lysed at 4° C. for 1 h in buffer A containing 50 mM Tris-HCl, pH 7.5, 1% Triton X-100, 1 mM EDTA, 1 mM EGTA, 50 mM sodium fluoride, 10 mM sodium β-glycerophosphate. 0.1% 2-mercaptoethanol, 0.1 mM phenylmethylsiilfonyl fluoride, and 1 μg/mL each of aprotinin, pepstatin, and leupeptin. Cell lysates were centrifuged at 10,000 g for 5 min, and the supernatant was treated with anti-Akt at 4° C. for 60 min., followed by protein G-agarose beads for additional 60 min. The immunoprecipitate was used to analyze Akt kinase activity by using the Akt/SGK-specific peptide substrate RPRAATF as described above. Values represented the means of two independent determinations.
# [10] = test system: phospho-Akt; assay: Western blot analysis of Akt and phospho-Akt in PC-3 cells; type: cell-based, human; conditions: 5 μM and above
# Procedure: Immunoblotting. The general procedure for the Western blot analysis of Akt and phospho-Akt is described as follows. Cells were washed in PBS, resuspended in SDS sample buffer sonicated by an ultrasonic sonicator for 5 see, and boiled for 5 min. After brief centrifugation, equivalent protein concentrations from the soluble fractions were resolved in 10% SDS-polyacrylamide gels on a Minigel apparatus, and transferred to a nitrocellulose membrane using a semi-dry transfer cell. The transblotted membrane was washed three times with TBS containing 0.05% Tween 20 (TBST). After blocking with TBST containing 5% nonfat milk for 60 min., the membrane was incubated with the primary antibody at 1:1,000 dilution in TBST-5% low fat milk at 4° C. for 12 h, and was then washed three times with TBST. The membrane was probed with goat anti-rabbit IgG-HRP conjugates (1:1,000) for 1 h at room temperature, and was washed with TBST three times. The immunoblots were visualized by enhanced chemiluminescence.
# [11] = test system: PC-3 cells; assay: Cell proliferation of PC-3 cells (Coulter counter, 10% FBS); type: cell-based, human; conditions: 1 μM, 10% FBS-supplemented RPMI 1640 medium
# Procedure: Cell Proliferation PC-3 cells were seeded into six-well plates at 50,000 cells/well in 10% FBS-containing RPMI 1640 medium. Following a 24 h attachment period, cells were treated in triplicate with the indicated concentration of compounds 1-36 or DMSO vehicle in 10% FBS-containing RPMI-1640 medium. At different time intervals, cells were harvested by trypsinization, and numerated using a Coulter counter model Z1 D/T (Beckman Coulter, Fullerton, Calif.).
# [12] = inducing apoptotic death in PC-3 cells / PC-3 cell viability, read-out: IC50 PC-3
# Chain of recombinant PDK-1 (O15530 whole entry, looked up): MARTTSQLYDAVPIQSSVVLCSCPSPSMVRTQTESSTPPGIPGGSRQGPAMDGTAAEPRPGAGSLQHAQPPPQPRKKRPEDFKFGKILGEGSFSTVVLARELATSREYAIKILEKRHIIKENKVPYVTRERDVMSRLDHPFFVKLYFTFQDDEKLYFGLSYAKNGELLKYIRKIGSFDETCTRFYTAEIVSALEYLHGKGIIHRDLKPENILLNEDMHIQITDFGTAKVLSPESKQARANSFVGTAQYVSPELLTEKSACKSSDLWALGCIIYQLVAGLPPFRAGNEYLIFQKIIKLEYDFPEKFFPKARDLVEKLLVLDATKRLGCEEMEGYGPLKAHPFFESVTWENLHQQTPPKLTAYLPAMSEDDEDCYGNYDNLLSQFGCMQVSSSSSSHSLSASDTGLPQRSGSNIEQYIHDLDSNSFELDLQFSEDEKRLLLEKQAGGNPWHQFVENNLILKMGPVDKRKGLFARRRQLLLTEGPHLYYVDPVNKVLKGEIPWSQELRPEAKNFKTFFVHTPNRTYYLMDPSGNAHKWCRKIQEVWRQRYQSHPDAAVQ
Compound,IC50 [2] [µM],"IC50 [3, 12] [µM]",other results
CO[C@H]1C[C@@H]2CC[C@@H](C)[C@@](O)(O2)C(=O)C(=O)N2CCCC[C@H]2C(=O)O[C@H]([C@H](C)C[C@@H]2CC[C@@H](O)[C@H](OC)C2)CC(=O)[C@H](C)/C=C(\C)[C@@H](O)[C@@H](OC)C(=O)[C@H](C)C[C@H](C)/C=C/C=C/C=C/1C [rapamycin],,,suppression of survival of S. typhimurium in murine macrophages [1]: capable of suppressing survival; fold higher concentration required to match bacterial clearance caused by OSU-03012 ([1]; S. typhimurium in murine macrophages): ~100 fold
4-[5-4-biphenylyl)-3-(trifluoromethyl)-1H-pyrazol-1-yl]benzensulfonamide [Compound 45],21,11,
"4-[5-(4′-butyl[1,1′-biphenyl]-4-yl)-3-(trifluoromethyl)-1H-1-yl]benzenesulfonamide [Compound 54]",32,15,
"4-[5-(4′-bromomethyl[1,1′-biphenyl]-4-yl)-3-(trifluoromethyl)-1H-1-yl]benzenesulfonamide [Compound 52]",20,11,
5-(2-Phenanthrenyl)-3-(trifluoromethyl)-4-(1H-tetrazol-5-ylphenyl)-1H-pyrazole [Compound 64],52,32,
NCC(=O)Nc1ccc(-n2nc(C(F)(F)F)cc2-c2ccc3c(ccc4ccccc43)c2)cc1 [OSU-03012],~5,,"concentration of maximal inhibition of intracellular bacterial survival ([1]; S. typhimurium in RAW 264.7, 8 h of treatment): 1 µM; IC50 ([1]; Salmonella enterica, RAW264.7, S. typhimurium in RAW 264.7, 8 h of treatment, read-out: IC50 of intracellular bacterial survival): ~0.2 µM; oral bioavailability / pharmacokinetic properties [4]: orally bioavailable with favorable pharmacokinetic properties; extracellular growth of S. typhimurium [5]: unaffected; IC50 for autophagy induction [6]: sub-μM; intracellular survival of F. novicida [7]: drastically reduced; also recorded: reduced intracellular survival"
4-[5-(4-(phenylmethyl)phenyl)-3-(trifluoromethyl)-1H-1-yl]benzenesulfonamide [Compound 56],15,8,
4-[5-(2-phenanthrenyl)-3-(trifluoromethyl)-1H-1-yl]benzenesulfonamide [Compound 59],,5,"direct inhibitory effect on immunoprecipitated Akt kinase activity [8]: Neither compound 59 nor other the other compounds displayed a direct inhibitory effect; IC50 [9]: 5 µM; improvement of IC50 values over 4-[5-(4-methylphenyl)-3-(trifluoromethyl)-1H-pyrazol-1-yl]benzenesulfonamide ([2]; PDK-1 activity and PC-3 cell viability): five- to six-fold; Akt dephosphorylation (Western blot) [10]: significant Akt dephosphorylation; anti-proliferative activity on PC-3 cell proliferation [11]: substantial anti-proliferative activity; IC50 ([3]; 24 h, 1% FBS-containing RPMI 1640 medium, read-out: dose required to induce 50% PC-3 cell death): 5 µM"
"Cn1cnc(N)c2ncnc1-2 [Compound 3MA, 3-methyladenine]",,,"effect on ability of OSU-03012 to reduce intracellular bacterial survival ([1]; infected RAW 264.7 cells, 1 μM OSU-03012 for 8 h): completely blocked"
"4-[5-(4′triflouromethyl[1,1′-biphenyl]-4-yl)-3-(trifluoromethyl)-1H-1-yl]benzenesulfonamide [Compound 51]",18,8,
5-(2-Phenanthrenyl)-3-(trifluoromethyl)-4-(1H-tetrazol-5-ylmethylphenyl)-1H-pyrazole [Compound 69],45,27,
"Cc1ccc(-c2cc(C(F)(F)F)nn2-c2ccc(S(N)(=O)=O)cc2)cc1 [Comparative Compound, 4-[5-(4-methylphenyl)-3-(trifluoromethyl)-1H-pyrazol-1-yl]benzenesulfonamide, reference compound]",,,"IC50 ([3]; Homo sapiens, PC-3, read-out: IC50 PC-3): 30 µM"
"4-[5-(3′,5′-dimethyl[1,1;-biphenyl]-4-yl)-3-(trifluoromethyl)-1H-1-yl]benzenesulfonamide [Compound 53]",17,,
4-[5-(9-phenanthrenyl)-3-(trifluoromethyl)-1H-1-yl]benzenesulfonamide [Compound 60],42,23,
"4-[5-(4′-methyl[1,1′-biphenyl]4-yl)-3-(trifluoromethyl)-1H-1-yl]benzenesulfonamide [Compound 50]",,8,
4-[5-(9H-fluoren-2-yl)-3-(trifluoromethyl)-1H-1-yl]benzenesulfonamide [Compound 57],16,,
"4-[5-(4′-tert-buty[1,1′-biphenyl]-4-yl)-3-(trifluoromethyl)-1H-1-yl]benzenesulfonamide [Compound 55]",32,15,
